# Results as given in patent US12565680B2, “Cancer neoantigens and their utilities in cancer vaccines and TCR-based cancer immunotherapy” (THE METHODIST HOSPITAL SYSTEM, priority 2018, dated 2026).
# Assays:
# Assay type in all cases: cell-based, human
# 135TIL = assay: Intracellular staining of IFN-γ after neoantigen peptide stimulation, 135TIL; settings: intracellular cytokine staining
# Procedure: (§1) T cells were stimulated by various in vitro methods, such as tumor cells, peptides or DNA encoding neoantigens, etc. and induced to release cytokines. Stimulated T cells were resuspended in 100 μl of Cytofix/Cytoperm solution (BD Biosciences) per well for microwell plates (or 250 μl for tubes) and incubated for 20 min at 4° C. for cell fixation. Fixed cells were permeabilized by washing twice in 1× Perm/Wash buffer (BD Biosciences). Then the fixed/permeabilized cells were thoroughly resuspended in 50 μl of 1× Perm/Wash buffer containing 1 μl of phycoerythrin (PE)-conjugated IFN-γ antibody (Thermo Fisher Scientific) and incubate at 4° C. for 30 min in the dark. After that the cells were washed twice with 1× Perm/Wash buffer and ready for flow cytometric analysis.
# T-cell clones of 135TIL = assay: IFN-γ ELISA with tumor-reactive T-cell clones of 135TIL; settings: for percentage of CD8^+ tumor-reactive T-cell clones recognizing the neoantigen: 40 clones; for number of CD8^+ tumor-reactive T-cell clones recognizing the neoantigen: of 40 clones
# Excerpt: Thus, immunogenic antigens can be generated from various sources or mechanisms [such as alternative ORFs, noncoding regions (3′ and 5′ UTRs, introns, noncoding RNA)]. […] All other tumor-reactive CD4^+ T-cell clones and CD8^+ T-cell clones recognized the mutation-derived neoantigens. […] To identify these two antigens recognized by these two CD4^+ T-cell clones, an Ii-fusion cDNA library derived from 135 mel tumor cells was constructed using experimental procedures. The Ii-fusion cDNA library pools (approximately 100 cDNA clones per pool) were transfected into 293IMDR3/DP4 or 293IMDR4/DP4 cells, followed by co-culturing with CD4^+ T-cell clones (135-1C1 or 135-1E1). After 2×10^5 cDNA clones, positive cDNA library pools that stimulate two T-cell clones, respectively, were identified based on IFN-γ release by ELISA (FIG. 6B). The positive pools were then transformed into Stbl3™ Escherichia coli, and single bacteria colonies were picked for plasmid DNA isolation. The screening assays were repeated in the same APCs transfected with the single cDNA-containing plasmids, and identified three clones that were able to stimulate 135-1C1 T cells, and two clones that reacted with 135-1E1 T cells (FIG. 6C). […] The 135-1E1 T cell-reactive cDNA clones encoded the product translated from an alternative reading frame of CTAG2 (LAGE1b) (FIG. 6C and FIG. 7A). […] LAGE1 is a cancer-testis antigen, with over 80% amino acid sequence identical to NY-ESO-1 protein, which is the most immunogenic tumor antigen identified to date. To define the T cell epitopes, wee generated a series of deletions and truncations of 3′ UTR region of ADIPOR2 gene, and narrowed down T cell epitope to a 26 aa peptide-coding sequence that stimulate 135-1C1 T cell response (FIG. 7D). Using similar approach, T cell epitopes were narrowed down to a 69 aa peptide-coding sequence of the LAGE1b alternative ORF2 for 135-1E1 T-cell recognition (FIG. 7E).
# Using systemic and multiple approaches, 8 cancer neoantigens were identified in 135 mel and 7 neoantigens in 136 mel. To understand the potential mechanisms that restrain the number of neoantigens that could induce T cell response, it was asked whether these neoantigens were equally recognized by T cells.
# T-cell cloning and expansion were performed. Briefly, T-cell clones from 135TILs were generated by a limited dilution (0.3 cell/well) in 96-well plates. Allogeneic PBMCs from normal donors were irradiated (60 Gy) and then seeded as feeder cells (7×10^4/well) in TCM containing 35 ng/ml OKT3 (anti-hCD3 antibody) (R&D Systems) and 35 ng/ml anti-hCD28 antibody (R&D Systems). On day 1, recombinant IL-2 was added to the final concentration of 300 IU/ml. On day 5, half of the culture medium was replaced with fresh TCM containing recombinant IL-2, and then the medium was changed every other day or when the medium color turned yellow. On day 14, T-cell clones were harvested, counted, tested for tumor reactivity. Tumor reactive T-cell clones were further expanded.
# 96-well tissue culture plates were coated with phosphate-buffered saline (PBS, GenDEPOT) containing 50 μg/ml poly-L-lysine (Millipore Sigma) at 37° C. 10 min later, the plates were rinsed twice with PBS. Tumor cells or 293-APCs were seeded at 5×10^4/well in the 96-well plate and cultured at 37° C., 5% CO2 for at least 4 h. For plasmid transfection, 250 ng of plasmid DNA were transfected into 293-APCs per well with 0.5 μl of Lipofectamine 2000 (Thermo Fisher Scientific) according to the manufacturer's instructions and incubated at 37° C., in 5% CO2 overnight. For peptide presentation, synthesized peptides (GeneScript) were added to each well at different final concentrations from 10^2 to 10^−4 μM and incubated at 37° C., 5% CO2. The cells transfected with plasmids or pulsed with peptides were washed with TCM twice, and then cocultured with T cells (1×10^5/well). After overnight culture, 50 μl of supernatant was collected for measuring cytokine release with an ELISA assay. […]
# [1] = system: CD4^+ T cells isolated from 136TIL; assay: T-cell reactivity assay (IFN-γ ELISA): TMGs/minigenes in 293IMDR1/DP4 and 293IMDR11/DP4 cells; settings: 293IMDR1/DP4 cells
# Excerpt: Using several different approaches (293-engineered APCs and B cells, as well as different libraries) and tumor-reactive T cells (TIL lines and clones), 6 MHC-II antigens (4 mutation-derived neoantigens and 2 derived from alternative ORF and 3′ UTR region) were identified and 3 MHC-I neoantigens in 135 mel tumor cells. It appears that the number of neoantigens recognized by T cells is rather limited, even though there are 232 somatic mutations (Table 3). To extend the findings, exome sequencing of genomic DNAs isolated from the second patient tumor (136 mel) and 136TIL cells (as a control) was performed and identified 348 somatic mutations that were unique to 136 tumor cells (FIG. 8A) (Table 4). A library was designed and constructed containing 35 TMGs (10 mutations in each TMG) in pTSX targeting expression vector based on somatic mutations. […] By contrast, no appreciable T cell activity was observed against the corresponding WT counterparts (FIG. 8C). Because ANKIB1 can be presented by both 293IMDR1/DP4 and 293IMDR11/DP4 cells (FIG. 8B), it is likely that ANKIB1 is presented by HLA-DP4 molecules for T cell recognition.
# 96-well tissue culture plates were coated with phosphate-buffered saline (PBS, GenDEPOT) containing 50 μg/ml poly-L-lysine (Millipore Sigma) at 37° C. 10 min later, the plates were rinsed twice with PBS. Tumor cells or 293-APCs were seeded at 5×10^4/well in the 96-well plate and cultured at 37° C., 5% CO2 for at least 4 h. For plasmid transfection, 250 ng of plasmid DNA were transfected into 293-APCs per well with 0.5 μl of Lipofectamine 2000 (Thermo Fisher Scientific) according to the manufacturer's instructions and incubated at 37° C., in 5% CO2 overnight. For peptide presentation, synthesized peptides (GeneScript) were added to each well at different final concentrations from 10^2 to 10^−4 μM and incubated at 37° C., 5% CO2. The cells transfected with plasmids or pulsed with peptides were washed with TCM twice, and then cocultured with T cells (1×10^5/well). After overnight culture, 50 μl of supernatant was collected for measuring cytokine release with an ELISA assay.
# 96-well microplate (Greiner Bio-one) was coated with 50 μl of PBS containing anti-human IFN-γ (Thermo Fisher Scientific, primary antibody, 1 μg/ml) per well and incubated at 4° C. overnight. […] The plate was read at OD450 nm. The concentration of IFN-γ was calculated by standard reading.
# The screening of antigen-specific T cells against TMGs were performed as described in T-cell reactivity assay above. […] The transfected cells were cocultured with tumor-reactive T cells overnight and the IFN-γ release in the supernatant in each well was determined by ELISA on the second day.
# 136TIL = assay: Intracellular staining of IFN-γ after neoantigen peptide stimulation, 136TIL; settings: for neoantigen-specific CD4^+ T cells in the total T cell population: fibroblasts loaded with peptide
# Excerpt: Among them, MAPK9 and ANKIB1 neoantigen-specific CD4^+ T cells accounted for 14.3% and 5.2% in the total T cell population, which accounted for 58% and 21% in the total tumor-reactive CD4^+ T cell population, respectively (FIG. 11B). By contrast, other neoantigen-specific CD4^+ T cells accounted for only a small percentage of T cells in the total T cell population (FIG. 11A). Since HHAT is only one MHC-I neoantigen, it was shown that HHAT neoantigen-specific CD8^+ T cells accounted for 10.6% in the total T cell population when stimulation with HHAT peptide (FIG. 11A), which accounted for 73% in the total tumor-reactive CD8^+ T cell population (FIG. 11B).
# as §1
# [2] = system: CD4^+136-C13 and 136-C22 T cell clones; assay: TMG/minigene screening with T cell clones of 136TIL; settings: 293IMDR1/DP4 cells
# Procedure: As shown in 135 mel, ADIPOR2 and LAGE1b were identified as tumor antigens recognized by T cell clones that were in relatively low abundance in the bulk TIL population. Thus, T cell clones generated from 136TILs were tested for their ability to recognize the newly identified as well as unknown neoantigens. 293IMDR1/DP4 and 293IMDR11/DP4 cells were transfected with 35 TMGs, respectively, followed by co-culturing with T cells clones for overnight.
sequence,measurement,setting,value
"GSGEKVAGRVIVKVCEVTRVKAVRI [TXNIP, MHC-I neoantigen of patient #135]",CD8^+ T cells recognizing the neoantigen in the total T cell population,135TIL,2.95%
same,percentage of CD8^+ tumor-reactive T-cell clones recognizing the neoantigen,T-cell clones of 135TIL,20%
same,number of CD8^+ tumor-reactive T-cell clones recognizing the neoantigen,T-cell clones of 135TIL,8
"KDAARPAYWVPDYEILHCHNCRKEF [ZFYVE1, MHC-II neoantigen of patient #136]","T cell recognition, IFN-γ release by CD4^+ 136TIL",[1],capable of stimulating CD4^+ T cells for IFN-γ release
"LLKTRRILKCSYLYGFFLEPKSTKK [ANKIB1, MHC-II neoantigen of patient #136]","T cell recognition, IFN-γ release by CD4^+ 136TIL",[1],capable of stimulating CD4^+ T cells for IFN-γ release
same,share in the total tumor-reactive CD4^+ T cell population,136TIL,21%
same,neoantigen-specific CD4^+ T cells in the total T cell population,136TIL,5.2%
"LLLAGYLAQQYLLLPTPKVIGIDLG [HSPA13, MHC-II neoantigen of patient #136 recognized by clone C22]",recognition by T cell clones 136-C13 (TMG13) and 136-C22 (TMG8),[2],MHC-II neoantigens
"PFYLGHTIKSGDFEYVGMEGGIVLS [C1GALT1C1, MHC-II neoantigen of patient #136 recognized by clone C13]",recognition by T cell clones 136-C13 (TMG13) and 136-C22 (TMG8),[2],MHC-II neoantigens
"RLKASLDRPFTNSESAFYSIVGLSS [RPN2, MHC-I neoantigen of patient #135]",CD8^+ T cells recognizing the neoantigen in the total T cell population,135TIL,1.54%
same,percentage of CD8^+ tumor-reactive T-cell clones recognizing the neoantigen,T-cell clones of 135TIL,12.5%
same,number of CD8^+ tumor-reactive T-cell clones recognizing the neoantigen,T-cell clones of 135TIL,5
"SMPLWDFQGSTMRTSQYVRLTPDER [LMAN2, MHC-II neoantigen of patient #136]","T cell recognition, IFN-γ release by CD4^+ 136TIL",[1],capable of stimulating CD4^+ T cells for IFN-γ release
"YPGIKFEELFPDCIFPSESERDKIK [MAPK9, MHC-II neoantigen of patient #136]","T cell recognition, IFN-γ release by CD4^+ 136TIL",[1],capable of stimulating CD4^+ T cells for IFN-γ release
same,share in the total tumor-reactive CD4^+ T cell population,136TIL,58%
same,neoantigen-specific CD4^+ T cells in the total T cell population,136TIL,14.3%
